Measurements taken from patent US7303758B2 (Cordis Corporation, priority 2004, dated 2007).

What was measured:
[1] = In vivo release kinetics from PVDF basecoat with PVDF topcoat, porcine pharmacokinetics studies; details: six hundred micro grams basecoat, two hundred micro grams topcoat
Text: The topcoat is two hundred micro grams.

[2] = system: non-synchronized cultured human coronary artery smooth muscle cells; assay: Anti-proliferative activity of rapamycin with varying mycophenolic acid concentrations; format: cell-based; details: mycophenolic acid zero to one thousand nano molar, two percent fetal bovine serum
Text: The multiple curves represent various concentrations of mycophenolic acid ranging from zero to one thousand nano molar concentrations. […] This potentiation observed in cultured coronary artery smooth muscle cells preferably translates to an enhancement in anti-restenotic efficacy following vascular injury and a reduction in the required amount of either agent to achieve the desired anti-restenotic effect.

[3] = In vivo release kinetics from EVA/BMA basecoat, porcine pharmacokinetics studies; details: basecoat 180 μg rapamycin, 180 μg mycophenolic acid, 240 μg EVA/BMA, with or without BMA topcoat
[4] = system: human coronary artery smooth muscle cell proliferation; assay: In vitro cell culture study of coronary artery smooth muscle cell proliferation; format: cell-based
Text: FIG. 51 is a graph of the inhibition of coronary artery smooth muscle cells by trichostatin A in a cell culture study.

tumor cell lines = details: cited from earlier work

## CO[C@H]1C[C@@H]2CC[C@@H](C)[C@@](O)(O2)C(=O)C(=O)N2CCCC[C@H]2C(=O)O[C@H]([C@H](C)C[C@@H]2CC[C@@H](O)[C@H](OC)C2)CC(=O)[C@H](C)/C=C(\C)[C@@H](O)[C@@H](OC)C(=O)[C@H](C)C[C@H](C)/C=C/C=C/C=C/1C [Rapamycin, rapamycin]
[1]
  in vivo release rate from PVDF basecoat with PVDF topcoat: slower release rate than that of mycophenolic acid

## COc1c(C)c2c(c(O)c1C/C=C(\C)CCC(=O)O)C(=O)OC2 [mycophenolic acid]
[2]
  effect on anti-proliferative rapamycin dose response curve: potentiates the anti-proliferative activity of rapamycin
[3]
  in vivo release from EVA/BMA basecoat: elutes more completely over a shorter duration than the rapamycin

## CC(/C=C/C(=O)NO)=C\[C@@H](C)C(=O)c1ccc(N(C)C)cc1 [trichostatin A]
[4]; human coronary artery smooth muscle cells, read-out: anti-proliferative IC50
  IC50: ~6 nM
[4]; in vitro cell culture
  inhibition of human coronary artery smooth muscle cell proliferation: completely inhibit
Tumor cell lines
  anti-proliferative IC50: low nM range
